Source: the supplement of paper PMC10307832

Tests used:
Assay in all cases: relative viability (nuclei count vs DMSO), 5 days (fraction); higher = more cells survive
GSK-J4 + Decitabine = compound: CCOC(=O)CCNc1cc(N2CCc3ccccc3CC2)nc(-c2ccccn2)n1 [GSK-J4] + Nc1ncn([C@H]2C[C@H](O)[C@@H](CO)O2)c(=O)n1 [Decitabine] (partner 2 µM)
How it was run: (§1)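 Lung cancer cell lines were seeded in 1536-well plates and dosed by pin tool the next day, with either a single drug or a fixed anchor-drug dose combined with five library-drug doses (not always all listed) spaced in √10 steps. Five days later, one step fixed the cells and stained their nuclei (final 0.05% Triton X-100, 1% formaldehyde, 1 ug/ml Hoechst), and nuclei were counted on 4× images. Relative viability is the nuclei count in treated wells divided by the count in vehicle wells, and each value is the median of duplicate plates.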

GSK-J4 + OSI-027 = compound: CCOC(=O)CCNc1cc(N2CCc3ccccc3CC2)nc(-c2ccccn2)n1 [GSK-J4] + COc1cccc2cc(-c3nc([C@H]4CC[C@H](C(=O)O)CC4)n4ncnc(N)c34)[nH]c12 [OSI-027] (partner 0.5 µM)
How it was run: as §1

AZ3146 + OSI-027 = compound: CN1CCC(CC1)OC2=CC(=C(C=C2)NC3=NC=C4C(=N3)N(C(=O)N4C)C5CCCC5)OC [AZ3146] + COc1cccc2cc(-c3nc([C@H]4CC[C@H](C(=O)O)CC4)n4ncnc(N)c34)[nH]c12 [OSI-027] (partner 0.5 µM)
How it was run: as §1

GSK-J4 + Crizotinib = compound: CCOC(=O)CCNc1cc(N2CCc3ccccc3CC2)nc(-c2ccccn2)n1 [GSK-J4] + C[C@@H](Oc1cc(-c2cnn(C3CCNCC3)c2)cnc1N)c1c(Cl)ccc(F)c1Cl [Crizotinib] (partner 1 µM)
How it was run: as §1

| Cell Line | relative viability (GSK-J4 + Decitabine; first compound 0.5 µM) | relative viability (GSK-J4 + Decitabine; first compound 1.581 µM) | relative viability (GSK-J4 + Decitabine; first compound 5 µM) | relative viability (GSK-J4 + Decitabine; first compound 15.81 µM) | relative viability (GSK-J4 + Decitabine; first compound 50 µM) | relative viability (GSK-J4 + OSI-027; first compound 0.5 µM) | relative viability (GSK-J4 + OSI-027; first compound 5 µM) | relative viability (GSK-J4 + OSI-027; first compound 15.81 µM) | relative viability (GSK-J4 + OSI-027; first compound 50 µM) | relative viability (AZ3146 + OSI-027; first compound 0.08 µM) | relative viability (AZ3146 + OSI-027; first compound 0.253 µM) | relative viability (AZ3146 + OSI-027; first compound 0.8 µM) | relative viability (AZ3146 + OSI-027; first compound 2.53 µM) | relative viability (AZ3146 + OSI-027; first compound 8 µM) | relative viability (GSK-J4 + Crizotinib; first compound 0.5 µM) | relative viability (GSK-J4 + Crizotinib; first compound 1.581 µM) | relative viability (GSK-J4 + Crizotinib; first compound 5 µM) | relative viability (GSK-J4 + Crizotinib; first compound 15.81 µM) | relative viability (GSK-J4 + Crizotinib; first compound 50 µM) | relative viability (GSK-J4 + OSI-027; first compound 1.581 µM) |
| --- | --- | --- | --- | --- | --- | --- | --- | --- | --- | --- | --- | --- | --- | --- | --- | --- | --- | --- | --- | --- |
| HCC-15 | 0.696 | 0.492 | 0.581 | 0.536 | 0.38 | 0.722 | 0.634 | 0.469 | 0.285 | 0.689 | 0.667 | 0.481 | 0.773 | 0.578 | 0.755 | 0.733 | 0.778 | 0.757 | 0.536 |  |
| PC-3 [JPC-3] | 0.883 | 0.735 | 0.801 | 0.876 | 0.781 | 0.71 | 0.737 | 0.585 | 0.732 | 0.624 | 0.792 | 0.789 | 0.77 | 0.776 | 0.912 | 0.882 | 0.952 | 0.926 | 0.814 | 0.65 |
| NCI-H1915 | 0.253 | 0.235 |  | 0.239 | 0.247 | 0.598 |  | 0.595 | 0.657 | 0.519 | 0.637 | 0.663 | 0.625 | 0.628 | 0.852 | 0.826 | 0.87 | 0.915 | 0.804 | 0.578 |
| HOP-62 | 0.257 | 0.233 | 0.2 | 0.193 | 0.225 | 0.69 | 0.722 | 0.858 | 0.497 | 0.755 | 0.796 | 0.742 | 0.857 | 0.866 | 0.798 | 1 | 0.965 | 0.994 | 0.847 | 0.692 |
| LCLC-103H | 0.784 | 0.624 | 0.786 | 0.722 | 0.572 | 0.438 | 0.379 | 0.432 | 0.326 | 0.423 | 0.474 | 0.529 | 0.456 | 0.501 | 1.01 | 0.811 | 1.18 | 0.916 | 0.988 | 0.325 |
| NCI-H460 | 0.444 |  | 0.411 | 0.429 | 0.47 | 0.586 | 0.537 | 0.508 | 0.522 | 0.636 | 0.72 | 0.622 | 0.622 | 0.423 | 0.983 | 0.734 | 0.832 | 0.321 | 0.821 | 0.494 |
| NCI-H441 | 0.203 | 0.279 | 0.205 | 0.217 | 0.271 | 0.673 | 0.567 | 0.536 | 0.433 | 0.611 | 0.656 | 0.528 | 0.663 | 0.529 | 0.74 | 0.574 | 0.643 | 0.697 | 0.775 | 0.472 |
| SK-LU-1 | 0.653 | 0.605 | 0.538 | 0.633 | 0.524 | 0.339 | 0.258 | 0.292 | 0.218 | 0.358 | 0.326 | 0.304 | 0.342 | 0.357 | 0.756 | 0.762 | 0.725 | 0.607 | 0.584 | 0.318 |
| Calu-6 |  |  |  |  |  |  |  |  |  |  |  |  |  |  | 0.726 | 0.618 | 0.828 | 0.76 | 0.685 |  |
| NCI-H2228 |  |  |  |  |  | 0.593 | 0.616 | 0.415 | 0.459 | 0.484 | 0.579 | 0.498 | 0.615 | 0.429 | 0.609 | 0.345 | 0.497 | 0.535 | 0.423 | 0.544 |
| LCLC-97TM1 | 0.213 | 0.237 | 0.225 | 0.262 | 0.215 | 0.443 | 0.574 | 0.342 | 0.269 | 0.501 | 0.585 | 0.364 | 0.415 | 0.396 |  |  | 0.455 | 0.269 | 0.323 | 0.357 |
| NCI-H1793 | 0.394 | 0.371 | 0.305 | 0.204 | 0.196 | 0.36 | 0.258 | 0.167 | 0.2 | 0.321 | 0.256 | 0.226 | 0.329 | 0.247 |  |  |  |  |  | 0.215 |
| EBC-1 |  |  |  |  |  |  |  |  |  |  |  |  |  |  | 0.191 | 0.206 | 0.192 | 0.212 | 0.19 |  |
| NCI-H522 | 0.776 | 0.611 |  | 0.573 | 0.651 | 0.78 | 0.541 | 0.585 | 0.543 | 0.882 | 0.664 | 0.527 | 0.68 | 0.759 |  |  |  |  |  | 0.637 |
| NCI-H1648 | 0.569 |  | 0.718 |  | 0.482 | 0.239 | 0.308 | 0.262 | 0.23 |  | 0.268 | 0.233 | 0.253 | 0.302 |  |  |  |  |  |  |
| NCI-H2342 | 0.645 | 0.691 | 0.776 | 0.75 | 0.7 | 0.669 | 0.662 | 0.615 | 0.699 | 0.592 | 0.536 | 0.59 | 0.508 | 0.61 |  |  |  |  |  | 0.626 |
| NCI-H1299 |  |  |  |  |  |  |  |  |  |  |  |  |  |  | 0.984 | 0.91 | 0.873 | 0.937 | 0.923 |  |
| SW 900 | 0.376 | 0.354 | 0.469 | 0.48 | 0.343 | 0.543 | 0.504 | 0.52 | 0.331 | 0.459 | 0.491 | 0.613 | 0.549 | 0.387 |  |  |  |  |  | 0.602 |
| IA-LM |  |  |  |  |  |  |  |  |  |  |  |  |  |  | 0.793 | 0.745 | 0.867 | 0.691 | 0.0902 |  |
| CAL-12T |  |  |  |  |  | 0.631 | 0.778 | 0.61 | 0.528 | 0.798 | 0.652 | 0.612 | 0.805 | 0.655 | 0.522 | 0.512 | 0.341 | 0.479 | 0.589 | 0.646 |
| NCI-H1395 | 0.781 | 0.718 | 0.632 | 0.751 | 0.661 | 0.65 | 0.515 | 0.591 | 0.569 | 0.569 | 0.533 | 0.564 | 0.701 | 0.633 |  |  |  |  |  | 0.641 |
| A549 | 0.241 | 0.205 | 0.246 | 0.244 | 0.282 |  |  |  |  |  |  |  |  |  | 0.691 | 0.669 |  | 0.536 | 0.605 |  |
